Results published in patent US6287827A, “Halo- or hydroxy-substituted nocathiacin antibiotics” (Bristol-Myers Squibb Company, priority 2000, dated 2001).
Converted amounts (≈) assume the structure as drawn.

Experiments:
Experiment in all cases: MIC, conventional serial broth dilution assay in nutrient broth (Difco)
Format in all cases: cell-based
[1] = tested on: Moraxella catarrhalis/β-lactamase positive A25409
[2] = tested on: Enterococcus faecalis A27519
[3] = tested on: Staphylococcus aureus/β-lactamase positive A15090
[4] = tested on: Streptococcus pneumoniae/penicillin intermediate A27881
[5] = tested on: Enterococcus faecium A24885
[6] = tested on: Staphylococcus haemolyticus A27298
[7] = tested on: Staphylococcus aureus/homo methicillin resistant A27223
[8] = tested on: Streptococcus pneumoniae A9585
[9] = tested on: Streptococcus pneumoniae/penicillin resistant A28272
[10] = tested on: Moraxella catarrhalis/β-lactamase positive A22344
[11] = tested on: Enterococcus avium A27456
[12] = tested on: Enterococcus faecalis A20688
[13] = tested on: Staphylococcus epidermidis A24548
[14] = tested on: Staphylococcus aureus/QC/ATCC #29213 A24407; details: ATCC29213
[15] = tested on: Staphylococcus aureus/Thiostrep. Res/Mutant A9497
[16] = tested on: Haemophilus influenzae/β-lactamase negative A20191
[17] = tested on: Bacillus subtilis/ATCC #6633 A9506A; details: ATCC6633
[18] = tested on: Haemophilus influenzae/β-lactamase positive A21515
[19] = tested on: Staphylococcus aureus/209P/ATCC #6538P A9497
[20] = tested on: Bacillus subtilis/Thiostrep. Res/Mutant A9506A
[21] = Staphylococcus aureus A15090 + 50% calf serum
[22] = Staphylococcus aureus/β-lactamase positive A15090
[23] = Staphylococcus aureus A27223 + 50% calf serum
[24] = Staphylococcus aureus/homo methicillin resistant A27223
[25] = A20688, Enterococcus faecalis A20688
[26] = A20688, Enterococcus faecalis A20688 +50% calf serum

SMILES | MIC [3, 21] [µg/mL] | MIC [3, 22] [µg/mL] | MIC [4] [µg/mL] | MIC [5] [µg/mL] | MIC [6] [µg/mL] | MIC [7, 23] [µg/mL] | MIC [7, 24] [µg/mL] | MIC [8] [µg/mL] | MIC [9] [µg/mL] | MIC [10] [µg/mL] | MIC [12, 25] [µg/mL] | MIC [12, 26] [µg/mL] | MIC [13] [µg/mL] | MIC [14] [µg/mL] | further results
C=C(NC(=O)c1csc(-c2nc3c(cc2O)-c2nc(cs2)C(=O)NC(C(C)O)C(=O)NC(=C(C)OC)c2nc(cs2)C(=O)NC2c4nc(cs4)C(=O)NC(COC(=O)c4c5c6c(c(F)ccc6n4O)COC(=O)C(OC4CC(C)(O)C(N(C)C)C(C)O4)C2OC5)c2nc-3cs2)n1)C(N)=O (stereo not shown) [5-Fluoronocathiacin, 5-fluoronocathiacin] | 0.125 | 0.125 (≈ 85.9 nM) | ≤ 0.002 | 0.25 (≈ 172 nM) | 0.003 (≈ 2.06 nM) | 0.003 | 0.003 (≈ 2.06 nM) | ≤ 0.002 | ≤ 0.002 | 0.06 (≈ 41.2 nM) | 0.25 (≈ 172 nM) | 0.25 (≈ 172 nM) | 0.007 (≈ 4.81 nM) | 0.125 (≈ 85.9 nM) | MIC [1]: 0.06 µg/mL (≈ 41.2 nM); MIC [2]: 0.25 µg/mL (≈ 172 nM); MIC [11]: 0.25 µg/mL (≈ 172 nM)
C=C(NC(=O)c1csc(-c2nc3c(cc2O)-c2nc(cs2)C(=O)NC(C(C)O)C(=O)NC(=C(C)OC)c2nc(cs2)C(=O)NC2c4nc(cs4)C(=O)NC(COC(=O)c4c5c6c(cc(F)cc6n4O)COC(=O)C(OC4CC(C)(O)C(N(C)C)C(C)O4)C2OC5)c2nc-3cs2)n1)C(N)=O (stereo not shown) [6-Fluoronocathiacin, 6-fluoronocathiacin] | 0.015 | 0.002 (≈ 1.37 nM) | < 0.0005 | 0.004 (≈ 2.75 nM) | 0.004 (≈ 2.75 nM) | 0.015 | 0.002 (≈ 1.37 nM) | < 0.0005 | < 0.0005 | 0.25 (≈ 172 nM) | < 0.001 | 0.015 (≈ 10.3 nM) | 0.004 (≈ 2.75 nM) | 0.002 (≈ 1.37 nM) | MIC [15]: 16 µg/mL (≈ 11000 nM); MIC [16]: > 16 µg/mL; MIC [17]: 0.002 µg/mL (≈ 1.37 nM); MIC [18]: > 16 µg/mL; MIC [19]: 0.002 µg/mL (≈ 1.37 nM); MIC [20]: > 32 µg/mL
